pEC50, pIC50: −log10 of the molar value. Entries after “also recorded” stand apart in the source; their conditions may differ. Like-named read-outs stand apart in the source and are kept apart here.
How the values were obtained:
[1] = test system: HBV double mutant rtL180M/rtM204V; test: intracellular HBV DNA replication assay, double mutant; format: cell-based, Hepatitis B virus
Method: (§1) In view of the significance of lamivudine- and adefovir-resistant mutations in the clinical application of anti-HBV treatment, the synthesized nucleoside 15/18 was tested against HBV WT as well as lamivudine- and adefovir-resistant mutants.

HBV mutant rtM204I = test: intracellular HBV DNA replication assay, rtM204I; format: cell-based; details: Hepatitis B virus
Method: as §1

HBV mutant rtM204V = test: intracellular HBV DNA replication assay, rtM204V; format: cell-based; details: Hepatitis B virus
Method: as §1

HBV mutant rtL180M = test: intracellular HBV DNA replication assay, rtL180M; format: cell-based, Hepatitis B virus; details: for pEC50 / EC90: Hepatitis B virus
Method: as §1

[2] = test system: lamivudine-resistant mutants including rtM204V/I±rtL180M; test: activity against lamivudine-resistant mutants relative to wild type; format: cell-based, Hepatitis B virus
Method: as §1

[3] = test system: HBV adefovir mutant rtN236T; test: intracellular HBV DNA replication assay, adefovir mutant; format: cell-based, Hepatitis B virus
Method: as §1

[4] = test system: HBV genotype C entecavir resistant clone (L180M+M204V+S202G); test: anti-HBV activity against entecavir resistant clone in Huh7 cells; format: cell-based, Hepatitis B virus; details: for pEC50: Hepatitis B virus, Huh-7; for antiviral potency against the entecavir mutant / pIC50: Huh7 cells; for pIC50: HBV genotype C entecavir resistant clone
Excerpt: (§2) A mono-phosphate prodrug can be useful not only to bypass the rate limiting initial phosphorylation step by the nucleoside kinase, thereby to increase the antiviral potency, but also it may potentially target the liver. Therefore, a phosphoramidite, compound 15P/18P was also synthesized.

HepG2 cells = test: mitochondrial toxicity by lactic dehydrogenase release; format: cell-based; details: human
wild-type HBV [5] = test: intracellular HBV DNA replication assay, wild type; format: cell-based, Hepatitis B virus
Method: as §1

[6] = target: T1, adenosine deaminase from calf thymus (Bos taurus, UniProt P56658); test: deamination study with adenosine deaminase; format: in vitro ADME
T1 construct: adenosine deaminase from calf thymus; from tissue; host or cells: calf thymus
T1 sequence (P56658 1-363): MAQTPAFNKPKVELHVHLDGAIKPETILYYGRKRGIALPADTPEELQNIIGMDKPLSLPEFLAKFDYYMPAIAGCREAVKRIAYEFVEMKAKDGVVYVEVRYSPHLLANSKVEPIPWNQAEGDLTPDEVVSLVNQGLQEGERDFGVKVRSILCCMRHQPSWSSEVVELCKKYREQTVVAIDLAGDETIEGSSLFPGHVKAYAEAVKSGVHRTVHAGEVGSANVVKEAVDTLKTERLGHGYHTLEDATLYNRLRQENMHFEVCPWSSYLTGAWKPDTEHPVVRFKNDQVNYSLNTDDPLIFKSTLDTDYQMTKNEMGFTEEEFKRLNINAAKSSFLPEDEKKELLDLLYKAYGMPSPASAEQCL

[7] = cytotoxicity / cellular toxicity (CC50); details: Table 2
Method: Drug susceptibility assays were performed as previously described. Cytotoxicity assays in PBM, CEM and Vero cells were conducted as previously described. […] These compounds were tested in a standard HBV assay in the laboratory of Dr. Brent Korba.

[8] = test system: entecavir resistant HBV mutant (L180M+M204V+S202G); test: in vivo study in chimeric mice, entecavir resistant HBV mutant; details: for viral load down / activity: mice, entecavir resistant HBV mutant (L180M+M204V+S202G); for antiviral activity: preliminary, chimeric mice infected with lamivudine-adeforvir-entecavir triple mutant
Method: (§3) The FMCA monophosphate prodrug compound (15P/18P) was also tested in chimeric mice for activity.

wild-type HBV [9] = test: in vivo study in chimeric mice, wild-type HBV
Method: as §3

HBV = test: standard HBV assay (HBV Assay Results table); format: cell-based, Hepatitis B virus
Method: Drug susceptibility assays were performed as previously described. […]

WT HBV = test: anti-HBV activity against wild type in Huh7 cells (Table 2); format: cell-based, Hepatitis B virus
Excerpt: as §2

[10] = test system: HBV rtA181T and rtN236T mutations; details: cited from earlier work
[11] = test system: lamivudine-resistant mutants including rtM204V/I±rtL180M; details: literature reference 50; cited from earlier work
[12] = rtN236T, compared with adefovir

Compound: C=C1[C@@H](n2cnc3c(N)ncnc32)[C@@H](F)[C@H](O)[C@H]1CO [Compound 15/18, (+)-(1R,2R,3R,5R)-3-(6-amino-9H-9-purinyl)-2-fluoro-5-(hydroxymethyl)-4-methylenecyclopentan-1-ol]
- pEC50 ([1]; Hepatitis B virus): 5.66
- EC90 ([1]; Hepatitis B virus): 5.5 µM
- pEC50 (HBV mutant rtM204I): 6.00
- pEC50 (HBV mutant rtM204V): 5.74
- pEC50 (HBV mutant rtL180M): 5.68
- EC90 (HBV mutant rtL180M): 5.1 µM
- fold increased antiviral activity in EC90 versus lamivudine (HBV mutant rtL180M; rtL180M): 4.3 fold
- cross-resistance to tested lamivudine-resistant mutants [2]: not cross-resistant
- fold increase against lamivudine-resistant mutants ([2]; rtM204V/I±rtL180M versus wild type): 1.0-1.2 fold
- pEC50 ([3]; Hepatitis B virus): 5.77
- EC90 ([3]; Hepatitis B virus): 4.6 µM
- fold enhanced EC50 value [3, 12]: 4.5 fold
- fold more favorable EC90 value [3, 12]: 7.8 fold
- pEC50 [4]: 6.17
- antiviral potency against the entecavir mutant [4]: still maintain the antiviral potency
- mitochondrial toxicity (lactic dehydrogenase release) (HepG2 cells): did not exhibit any significant toxicity up to 100 μM
- EC90 (wild-type HBV [5]; Hepatitis B virus): 4.5 µM
- pEC50 (wild-type HBV [5]; Hepatitis B virus, HBV-WT, inhibition of 50% of HBV DNA): 5.82
- fold more potent than adefovir in EC90 (wild-type HBV [5]; wild-type HBV): 1.5 fold
- fold less potent than lamivudine (wild-type HBV [5]; wild-type HBV, EC50): 7 fold
- stability against adenosine deaminase [6]: completely stable

Compound: C=C1C(COP(=O)(N[C@@H](C)C(=O)OC)Oc2ccccc2)C(O)C(F)C1n1cnc2c(N)ncnc21 (stereo partly shown) [Compound 15P/18P]
- cellular toxicity in comparison to parent 15/18 [7]: without significant increase of cellular toxicity
- viral load down / activity [8]: 1 log
- antiviral activity [8]: exhibited antiviral activity
- pIC50 [4]: 7.30
- antiviral potency against the entecavir mutant [4]: still maintain the antiviral potency
- viral load down (wild-type HBV [9]): 2 log
- times more active than the compound where R1 and R1a are H (HBV; prodrug versus parent 15/18): more than 10 times
- fold enhancement of anti-HBV potency in EC50 versus parent 15/18 (WT HBV): 7 fold
- fold enhancement of anti-HBV potency in EC90 versus parent 15/18 (WT HBV): 13 fold

Compound: Nc1ncnc2c1ncn2CCOCP(=O)(O)O [adefovir, reference compound]
- pEC50 ([1]; double mutant rtL180M/rtM204V, read-out: EC50): 5.66
- EC90 ([1]; double mutant rtL180M/rtM204V, read-out: EC90): 8.5 µM
- increase in median effective concentration [10]: two-fold to nine-fold
- EC90 (wild-type HBV [5]; HBV-WT, inhibition of 90% of HBV DNA, read-out: EC90): 7.1 µM

Compound: C=C1[C@H](CO)[C@@H](O)C[C@@H]1n1cnc2c(=O)[nH]c(N)nc21 [entecavir]
- viral load down / activity ([8]; listed as ETV): inactive; also recorded: not active
- antiviral activity [8]: did not
- pEC50 [4]: 5.92
- fold loss of activity against lamivudine-resistant mutants [11]: 8 fold

Compound: Nc1ccn([C@@H]2CS[C@H](CO)O2)c(=O)n1 [lamivudine, reference compound]
- pEC50 (HBV mutant rtL180M): 5.82
- EC90 (HBV mutant rtL180M): 22 µM
- pEC50 (HBV; Hepatitis B virus, read-out: Control: 3TC EC50): 2.62
- mitochondrial toxicity (lactic dehydrogenase release) (HepG2 cells): did not exhibit any significant toxicity up to 100 μM

Compound: (+)-(1R,2R,3R,5R)-3-(6-amino-9H-9-purinyl)-2-fluoro-5-(hydroxymethyl)-4-methylenecyclopentan-1-ol [Compound 15/18]
- pIC50 [4]: 7.27
